Experimental data reported in patent US5843988A, “Cyclopropachromencarboxylic acid derivatives” (Suntory Limited, priority 1995, dated 1998).
Like-named read-outs stand apart in the source and are kept apart here.

Biological target: T1, rat mGluR1 (metabotropic glutamate receptor 1) (Rattus norvegicus, UniProt P23385)
T1 construct: expressed in transfected cells; host or cells: CHO (Chinese hamster ovary) cells
Assay: mGluR1 antagonistic effect as assessed with reference to intracellular Ca2+ response in mGluR1 expressing CHO cells (Fura-2 fluorometry)
Type: cell-based
Conditions: Intracellular Ca2+ release induced by 10 μM glutamic acid
From the text: Evaluation Example 1. mGluR1 antagonistic effect as assessed with reference to intracellular Ca^2+ response in mGluR1 expressing CHO cells
Since mGluR1 (metabotropic glutamate receptor 1) induces release of Ca^2+ from intracellular Ca^2+ storage sites via the formation of inositol-1,4,5-triphosphate in the pathway of the intracellular signaling system, it is possible to evaluate the antagonistic activity of the compounds of the invention against mGluR1 with reference to intracellular Ca^2+ response in CHO cells in which recombinant rat mGluR1 gene is transfected.
The present inventors applied this evaluation system to assess the mGluR1 antagonistic activity of the compounds provided by this invention using CHO cells in which rat mGluR1 gene is expressed [S. Nakanishi et al.: Neuron, 8, 757 (1992)]. Intracellular Ca^2+ release induced by 10 μM glutamic acid in the presence of various concentrations of the compounds of the present invention added to culture medium was measured by fluorometry with Fura -2 [H. Sugino et al.: Brain Res., 322,127 (1984)]. The antagonistic effect against the induced intracellular Ca^2+ elevation was thus assessed by comparison with the control response in the absence of the test compounds.

[1] = read-out: 50% inhibitory concentrations (IC50), bound stated

T1 sequence (P23385 19-1199): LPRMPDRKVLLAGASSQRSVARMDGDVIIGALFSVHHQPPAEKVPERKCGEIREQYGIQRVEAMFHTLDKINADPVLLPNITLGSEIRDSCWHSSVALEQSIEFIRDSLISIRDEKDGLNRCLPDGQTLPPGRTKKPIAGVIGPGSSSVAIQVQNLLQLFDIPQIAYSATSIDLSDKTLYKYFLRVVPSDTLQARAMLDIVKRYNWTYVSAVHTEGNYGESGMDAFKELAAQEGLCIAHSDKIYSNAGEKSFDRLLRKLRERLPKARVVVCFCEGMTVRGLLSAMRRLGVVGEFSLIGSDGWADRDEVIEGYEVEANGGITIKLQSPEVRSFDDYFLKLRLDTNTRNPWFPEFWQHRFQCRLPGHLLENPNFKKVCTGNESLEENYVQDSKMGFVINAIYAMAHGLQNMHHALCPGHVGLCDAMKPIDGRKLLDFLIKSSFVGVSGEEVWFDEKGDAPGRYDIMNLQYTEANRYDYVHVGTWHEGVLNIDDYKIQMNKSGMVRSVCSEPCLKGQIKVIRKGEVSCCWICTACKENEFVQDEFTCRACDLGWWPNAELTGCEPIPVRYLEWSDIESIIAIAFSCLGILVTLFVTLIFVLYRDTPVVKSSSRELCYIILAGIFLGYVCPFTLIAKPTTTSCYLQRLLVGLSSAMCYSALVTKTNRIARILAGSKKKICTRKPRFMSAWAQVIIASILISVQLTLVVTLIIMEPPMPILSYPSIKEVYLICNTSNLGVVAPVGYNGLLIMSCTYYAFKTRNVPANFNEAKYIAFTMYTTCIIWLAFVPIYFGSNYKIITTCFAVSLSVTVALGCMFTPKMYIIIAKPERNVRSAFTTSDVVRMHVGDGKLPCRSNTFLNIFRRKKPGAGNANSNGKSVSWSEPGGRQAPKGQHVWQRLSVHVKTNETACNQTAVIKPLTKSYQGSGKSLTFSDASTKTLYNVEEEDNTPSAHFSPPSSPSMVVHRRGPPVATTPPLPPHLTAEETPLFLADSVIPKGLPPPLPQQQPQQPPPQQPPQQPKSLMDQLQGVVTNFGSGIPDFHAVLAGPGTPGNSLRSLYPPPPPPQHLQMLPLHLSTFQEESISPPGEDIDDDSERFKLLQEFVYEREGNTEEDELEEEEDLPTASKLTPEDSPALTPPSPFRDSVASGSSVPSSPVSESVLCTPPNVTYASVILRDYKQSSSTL

Row | SMILES | IC50 (Table 3, read-out: IC50) [µM] | IC50 [1] [µM]
1 | CCOC(=O)C12CC1C(=NO)c1ccccc1O2 (stereo not drawn) [Example 32, 1a-ethoxycarbonyl-1a, 7a-dihydro-7(1H)-hydro-xyiminocyclopropa [b]chromen] | 23 | ≤ 100
2 | CC(C)COC(=O)C12CC1C(=NO)c1ccccc1O2 (stereo not drawn) [Example 34] | 20 | ≤ 100
3 | CN(C(=O)C12CC1C(=NO)c1ccccc1O2)c1ccc(Cl)cc1 (stereo not drawn) [Example 42, 1a-(N-4-chlorophenyl-N-methyl)-carbamoyl-1a, 7a-dihydro-7(1H)-hydroxyiminocyclopropa-[b]chromen] | 100 | ≤ 100
4 | CC(N)(C(=O)O)c1ccc(C(=O)O)cc1 (stereo not drawn) [MCPG, reference compound] | 700 | 

Further compounds by falling IC50 (Table 3, read-out: IC50), results first:

Row | IC50 (Table 3, read-out: IC50) [µM] | IC50 [1] [µM] | SMILES
5 | 200 |  | N[C@H](C(=O)O)c1ccc(C(=O)O)cc1 [(S)-4CPG, reference compound]
6 | 100 | ≤ 100 | COc1ccc(N(C)C(=O)C23CC2C(=NO)c2ccccc2O3)cc1 (stereo not drawn) [Example 41, 1a-(N-4-methoxyphenyl-N-methyl)carbamoyl-1a, 7a-dihydro-7(1H)-hydroxyimino-cyclopropa[b]chromen]
7 | 100 | ≤ 100 | O=C(N1CCN(c2ccc(F)cc2)CC1)C12CC1C(=NO)c1ccccc1O2 (stereo not drawn) [Example 53, 1a-(1-(4-fluorophenyl)-piperazinyl)arbonyl-1a, 7a-dihydro-7(1H)-hydroxyiminocyclopropa[b]chromen]
8 | 20 | ≤ 100 | CN(Cc1ccccc1)C(=O)C12CC1C(=NO)c1ccccc1O2 (stereo not drawn) [Example 43, 1a-(N-benzyl-N-methyl)carbamoyl-1a, 7a-dihydro-7(1H)-hydroxyiminocyclopropa[b]chromen]
9 | 10 | ≤ 100 | CN(C(=O)C12CC1C(=NO)c1ccccc1O2)c1ccccc1 (stereo not drawn) [Example 36, 1a-(N-methyl-N-phenyl)carbamoyl-1a, 7a-dihydro-7(1H)-hydroxyiminocyclopropa[b]chromen]
10 | 3 | ≤ 100 | O=C(Nc1ccccc1)C12CC1C(=NO)c1ccccc1O2 (stereo not drawn) [Example 35, 1a-(N-phenyl)carbamoyl-1a, 7a-dihydro-7(1H)-hydroxyiminocyclopropa[b]chromen]
